# Laboratory results from US6544979B1, “Fused imidazole derivatives for improving oral bioavailability of pharmaceutical agents” (Janssen Pharmaceuticals, N.V., priority 1997, dated 2003).
# Columns and labels:
# [1] = tested on: P388/ADR (adriamycine resistance cell line) murine leukemia; test: MDR in vivo test: reversal of adriamycine resistance in P388/ADR murine leukemia, survival; parameters: species or system mice; settings: for MST %: control = 100%
# Method: Male B6D2F1 mice (18-21 g) were injected intraperitoneally with 1×10^5 P388/ADR cells at day 0. Daily intraperitoneal treatment with adriamycine, a test compound of formula (I) or a combination of both was installed from day 1 until day 10. Control animals received the vehicle (15% 4-OH-propyl-β-cyclodextrine in saline). Each group consisted of 8 animals. Adriamycine was dosed at a concentration of 1.25 mg/kg body weight, half the maximal tolerable dose of adriamycine in this treatment schedule. The test compound was dosed at 20, 10, 5, 2.5, 1.25 and 0.63 mg/kg either as single treatment or combined with adriamycine.
# Survival of the animals was recorded each day and expressed as a percentage of the median survival in the treated groups compared to the median survival in the control group, the latter to be said to be 100%.
# Table C-1 lists the effect of compound 6 and adriamycine on the survival of mice injected with P388/ADR leukemia.
# doses of compound 6 and adriamycine are expressed as mg/kg body weight.
# column “% Change vs. ADR” give the difference in MST% of the different groups compared to the MST% in the adriamycine-monotherapy group.
# [2] = in vivo; settings: mouse, po, 10 mg/kg
# Method: The increase in drug bioavailability is defined as an increase in the Area Under the Curve (AUC). AUC is the integrated measure of systemic drug concentrations over time in units of mass-time/volume. The AUC from time zero (the time of dosing) to time infinity (when no drug remains in the body) following the administration of a drug dose is a measure of the exposure of the test subject, i.e. an animal or a human patient, to the drug.
# Mice were treated orally (80 mg/kg po) with compound (6) about 10 to 20 minutes prior to oral administration of taxol (10 mg/kg po). The Area Under the Curve (AUC) was measured and compared with the AUC of mice treated only with taxol.
# [3] = adriamycine 1.25 mg/kg alone, ip daily day 1-10
# [4] = compound 6 0.63 mg/kg combined with adriamycine 1.25 mg/kg
# [5] = compound 6 0.63 mg/kg single treatment
# [6] = compound 6 1.25 mg/kg combined with adriamycine 1.25 mg/kg
# [7] = compound 6 1.25 mg/kg single treatment
# [8] = compound 6 2.5 mg/kg combined with adriamycine 1.25 mg/kg
# [9] = compound 6 2.5 mg/kg single treatment
# [10] = compound 6 5 mg/kg combined with adriamycine 1.25 mg/kg
# [11] = compound 6 5 mg/kg single treatment
# [12] = compound 6 10 mg/kg combined with adriamycine 1.25 mg/kg
# [13] = compound 6 10 mg/kg single treatment
# [14] = compound 6 20 mg/kg combined with adriamycine 1.25 mg/kg
# [15] = compound 6 20 mg/kg single treatment
smiles,measurement,setting,value
"OC1Cn2ccnc2C(=C2CCN(CCc3ccc(OCc4ccc5ccccc5n4)cc3)CC2)c2ccsc21 (racemic) [Compound 28, (±)-6,10-dihydro-10-[1-[2-[4-(2-quinolinylmethoxy)-phenyl]ethyl]-4-piperidinylidene]-5H-imidazo[1,2-a]-thieno[3,2-d]azepin-6-ol]",melting point,,242.1 °C
"COc1cccc2c1C(=O)c1c(O)c3c(c(O)c1C2=O)C[C@@](O)(C(=O)CO)C[C@@H]3O[C@H]1C[C@H](N)[C@H](O)[C@H](C)O1 [Adriamycine, adriamycine, reference compound]",% Change vs. ADR,[1]; [3],0%
same,Survival Days med(min-max),[1]; [3],13(12-15) Days
same,MST %,[1]; [3],118%
"O=Cc1cnc2n1CCc1ccccc1C2=C1CCN(CCc2ccc(OCc3ccc4ccccc4n3)cc2)CC1 [Compound 4, 6,11-dihydro-11-[1-[2-[4-(2-quinolinylmethoxy)phenyl]ethyl]-4-piperidinylidene]-5H-imidazo[2,1-b][3]benzazepine-3-carboxaldehyde]",melting point,,193.5 °C
"COC(=O)c1cnc2n1CCc1ccccc1C2=C1CCN(CCc2ccc(OCc3ccc4ccccc4n3)cc2)CC1 [Compound 6, methyl 6,11-dihydro-11-[1-[2-[4-(2-quinolinylmethoxy)phenyl]ethyl]-4-piperidinylidene]-5H-imidazo[2,1-b][3]-benzazepine-3-carboxylate]",% Change vs. ADR,[1]; [4],14%
same,Survival Days med(min-max),"[1]; compound 6 0.63 mg/kg combined with adriamycine 1.25 mg/kg, ip daily day 1-10",14.5(14->30) Days
same,MST %,[1]; [4],132%
same,% Change vs. ADR,[1]; [5],−18%
same,Survival Days med(min-max),"[1]; compound 6 0.63 mg/kg single treatment, ip daily day 1-10",11(10-12) Days
same,MST %,[1]; [5],100%
same,% Change vs. ADR,[1]; [6],18%
same,Survival Days med(min-max),"[1]; compound 6 1.25 mg/kg combined with adriamycine 1.25 mg/kg, ip daily day 1-10",15(14-17) Days
same,MST %,[1]; [6],136%
same,% Change vs. ADR,[1]; [7],−13%
same,Survival Days med(min-max),"[1]; compound 6 1.25 mg/kg single treatment, ip daily day 1-10",11.5(10-16) Days
same,MST %,[1]; [7],105%
same,% Change vs. ADR,[1]; [8],14%
same,Survival Days med(min-max),"[1]; compound 6 2.5 mg/kg combined with adriamycine 1.25 mg/kg, ip daily day 1-10",14.5(10-20) Days
same,MST %,[1]; [8],132%
same,% Change vs. ADR,[1]; [9],−23%
same,Survival Days med(min-max),"[1]; compound 6 2.5 mg/kg single treatment, ip daily day 1-10",10.5(10-12) Days
same,MST %,[1]; [9],95%
same,% Change vs. ADR,[1]; [10],14%
same,Survival Days med(min-max),"[1]; compound 6 5 mg/kg combined with adriamycine 1.25 mg/kg, ip daily day 1-10",14.5(11-16) Days
same,MST %,[1]; [10],132%
same,% Change vs. ADR,[1]; [11],−18%
same,Survival Days med(min-max),"[1]; compound 6 5 mg/kg single treatment, ip daily day 1-10",11(10-13) Days
same,MST %,[1]; [11],100%
same,% Change vs. ADR,[1]; [12],18%
same,Survival Days med(min-max),"[1]; compound 6 10 mg/kg combined with adriamycine 1.25 mg/kg, ip daily day 1-10",15(14-28) Days
same,MST %,[1]; [12],136%
same,% Change vs. ADR,[1]; [13],−23%
same,Survival Days med(min-max),"[1]; compound 6 10 mg/kg single treatment, ip daily day 1-10",10.5(10-13) Days
same,MST %,[1]; [13],95%
same,% Change vs. ADR,[1]; [14],23%
same,Survival Days med(min-max),"[1]; compound 6 20 mg/kg combined with adriamycine 1.25 mg/kg, ip daily day 1-10",15.5(14-17) Days
same,MST %,[1]; [14],141%
same,% Change vs. ADR,[1]; [15],−18%
same,Survival Days med(min-max),"[1]; compound 6 20 mg/kg single treatment, ip daily day 1-10",11(10-14) Days
same,MST %,[1]; [15],100%
"O=C(O)c1cnc2n1CCc1ccccc1C2=C1CCN(CCc2ccc(OCc3ccc4ccccc4n3)cc2)CC1 [Compound 7, 6,11-dihydro-11-[1-[2-[4-(2-quinolinylmethoxy)phenyl]ethyl]-4-piperidinylidene]-5H-imidazo[2,1-b][3]benzazepine-3-carboxylic acid]",melting point,,174.2 °C
"COc1cc(CN2CCC(=C3c4ccccc4CCn4ccnc43)CC2)cc(OC)c1OCc1ccc2ccccc2n1 [Compound 32, 11-[1-[[3,5-dimethoxy-4-(2-quinolinylmethoxy)-phenyl]methyl]-4-piperidinylidene]-6,11-dihydro-5H-imidazo[2,1-b][3]benzazepine]",melting point,,214.8 °C
"CC(=O)O[C@H]1C(=O)[C@@]2(C)[C@H]([C@H](OC(=O)c3ccccc3)[C@]3(O)C[C@H](OC(=O)[C@H](O)[C@@H](NC(=O)c4ccccc4)c4ccccc4)C(C)=C1C3(C)C)[C@]1(OC(C)=O)CO[C@@H]1C[C@@H]2O [taxol, paclitaxel]",AUC,[2],820 ± 110 ng·h/mL
